Assay results: patent publication US4859782A (priority 1987, dated 1989)
Converted amounts (≈) assume the structure as drawn. Where two headings read alike, the source gives them in different places.

Tests used:
CV-1 cells = details: for VSV cyt (cytotoxicity): VSV-infected CV-1 cells
Candida albicans [1] = assay: microbe, parasite or virus in culture; details: read-out: Antifungal activity, […]
[2] = test system: herpes simplex type 1 (HSV-1); format: cell-based
Penicillium atrovenetum = assay: microbe, parasite or virus in culture; format: cell-based; details: read-out: Antifungal activity, Pa: diameter of the zone of growth inhibition
[3] = test system: vesicular stomatitis virus (VSV); format: cell-based; details: CV-1 cells, 8 μg/well
Candida albicans [4] = assay: microbe, parasite or virus in culture; details: read-out: Ca MIC
Saccharomyces cerevisiae = assay: microbe, parasite or virus in culture; details: read-out: Antifungal activity, […]

COC1CC(C)OC(CCC(C)C(O)C(C)C2OC(=O)C(C)=CCC(O)CC3C=CCC(CC(OC)C(C)C(O)CC(O)C(C)C(C(C)C(O)C(C)CCC4CC(OC)CC(C)O4)OC(=O)C(C)=CCC(O)CC4C=CCC(CC(OC)C(C)C(O)CC(O)C2C)O4)O3)C1 (stereo not drawn) [misakinolide, Misakinolide]
HSV-1 cyt (cytotoxicity) (CV-1 cells): 0 | VSV cyt (cytotoxicity) (CV-1 cells; 4 μg/well): 0 | VSV cyt (cytotoxicity) (CV-1 cells; 8 μg/well): 0 | zone of inhibition at 5 µg/disc (Candida albicans [1]): 10 mm | HSV-1 av (antiviral activity) [2]: ++ and + | zone of inhibition at 5 µg/disc (Penicillium atrovenetum): 10 mm | VSV av (antiviral activity) [3]: + | MIC (Candida albicans [4]): 5 µg/mL (≈ 3.74 µM) | zone of inhibition at 5 µg/disc (Saccharomyces cerevisiae): 12 mm
